Test results reported in ChEMBL document CHEMBL5120922, “Discovery, Optimization, and Evaluation of Potent and Selective PI3Kδ-γ Dual Inhibitors for the Treatment of B-cell Malignancies” (J Med Chem, 2022).
pIC50: −log10 of the molar value.

Assays:
[1] = target: T1, Phosphatidylinositol 4,5-bisphosphate 3-kinase catalytic subunit beta isoform (Homo sapiens, UniProt P42338); assay: Inhibition of N-terminal His6-tagged recombinant full length human PI3Kbeta expressed in baculovirus infected Sf21 insect cells at 1 uM by HTRF assay relative to control
Target sequence in this assay (P42338 whole entry, looked up, canonical isoform): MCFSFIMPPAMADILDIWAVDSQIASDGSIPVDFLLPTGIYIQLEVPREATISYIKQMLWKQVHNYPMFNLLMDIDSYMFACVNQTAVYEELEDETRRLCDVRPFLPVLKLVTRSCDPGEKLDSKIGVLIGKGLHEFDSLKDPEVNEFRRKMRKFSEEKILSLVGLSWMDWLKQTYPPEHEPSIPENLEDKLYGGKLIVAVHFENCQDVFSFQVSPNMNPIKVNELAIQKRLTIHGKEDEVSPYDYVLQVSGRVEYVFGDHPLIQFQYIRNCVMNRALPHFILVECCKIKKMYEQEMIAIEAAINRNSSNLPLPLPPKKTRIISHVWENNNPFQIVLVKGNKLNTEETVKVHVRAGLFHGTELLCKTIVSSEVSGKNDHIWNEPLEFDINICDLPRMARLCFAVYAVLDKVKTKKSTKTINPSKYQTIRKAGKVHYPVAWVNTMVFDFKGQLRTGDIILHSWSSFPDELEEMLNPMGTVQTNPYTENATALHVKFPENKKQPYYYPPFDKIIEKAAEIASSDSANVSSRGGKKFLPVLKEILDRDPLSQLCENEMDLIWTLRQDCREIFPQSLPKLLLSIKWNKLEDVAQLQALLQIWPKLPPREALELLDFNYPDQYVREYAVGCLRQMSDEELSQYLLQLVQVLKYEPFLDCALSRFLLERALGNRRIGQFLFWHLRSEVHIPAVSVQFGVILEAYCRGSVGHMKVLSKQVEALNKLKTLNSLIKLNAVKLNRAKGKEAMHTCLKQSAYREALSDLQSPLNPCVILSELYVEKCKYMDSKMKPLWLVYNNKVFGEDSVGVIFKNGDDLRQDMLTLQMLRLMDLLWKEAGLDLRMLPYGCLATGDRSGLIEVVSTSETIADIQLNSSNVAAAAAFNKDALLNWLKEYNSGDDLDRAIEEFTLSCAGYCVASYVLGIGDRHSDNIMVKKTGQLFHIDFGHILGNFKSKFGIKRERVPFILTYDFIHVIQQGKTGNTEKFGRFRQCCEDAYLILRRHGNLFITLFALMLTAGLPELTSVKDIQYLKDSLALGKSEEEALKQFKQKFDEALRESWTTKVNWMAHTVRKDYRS

SUD4 = assay: Antiproliferative activity against human SU-DHL-4 cells assessed as cell growth inhibition measured after 72 hrs by MTT assay; format: functional, cell-based; conditions: SU-DHL-4, 72 h
[2] = target: T2, Phosphatidylinositol 4,5-bisphosphate 3-kinase catalytic subunit gamma isoform (Homo sapiens, UniProt P48736); assay: Inhibition of N-terminal His6-tagged recombinant full length human PI3Kgamma expressed in baculovirus infected Sf21 insect cells at 0.1 uM by HTRF assay relative to control
Target sequence in this assay (P48736 whole entry, looked up, canonical isoform): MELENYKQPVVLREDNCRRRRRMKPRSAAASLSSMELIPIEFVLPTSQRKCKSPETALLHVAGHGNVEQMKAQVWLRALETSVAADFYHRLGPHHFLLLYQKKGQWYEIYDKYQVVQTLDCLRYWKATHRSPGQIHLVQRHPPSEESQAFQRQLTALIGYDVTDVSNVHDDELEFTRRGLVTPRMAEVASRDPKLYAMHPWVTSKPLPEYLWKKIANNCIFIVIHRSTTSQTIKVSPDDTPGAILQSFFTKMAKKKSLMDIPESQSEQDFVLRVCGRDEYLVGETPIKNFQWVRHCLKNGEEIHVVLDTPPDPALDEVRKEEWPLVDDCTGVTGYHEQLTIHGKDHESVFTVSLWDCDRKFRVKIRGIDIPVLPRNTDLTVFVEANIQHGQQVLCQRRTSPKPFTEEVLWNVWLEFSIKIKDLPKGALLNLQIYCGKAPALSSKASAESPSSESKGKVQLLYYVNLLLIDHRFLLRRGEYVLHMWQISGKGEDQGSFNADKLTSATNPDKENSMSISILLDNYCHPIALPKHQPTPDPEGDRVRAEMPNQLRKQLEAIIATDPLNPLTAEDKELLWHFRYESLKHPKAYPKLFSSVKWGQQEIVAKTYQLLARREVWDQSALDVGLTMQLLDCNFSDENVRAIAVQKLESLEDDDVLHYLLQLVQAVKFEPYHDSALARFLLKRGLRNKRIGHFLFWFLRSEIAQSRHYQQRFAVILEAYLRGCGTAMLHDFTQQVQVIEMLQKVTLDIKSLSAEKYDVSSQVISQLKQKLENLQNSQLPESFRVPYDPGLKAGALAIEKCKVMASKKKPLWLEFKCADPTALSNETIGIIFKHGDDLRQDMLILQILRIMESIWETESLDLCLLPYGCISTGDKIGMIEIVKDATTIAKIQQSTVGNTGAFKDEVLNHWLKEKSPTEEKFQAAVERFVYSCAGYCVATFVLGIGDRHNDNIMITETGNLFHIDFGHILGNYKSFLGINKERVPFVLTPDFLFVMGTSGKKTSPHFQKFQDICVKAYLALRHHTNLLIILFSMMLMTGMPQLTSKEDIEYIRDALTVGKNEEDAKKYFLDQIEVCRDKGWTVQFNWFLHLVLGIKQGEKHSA

[3] = target: T3, Phosphatidylinositol 4,5-bisphosphate 3-kinase catalytic subunit alpha isoform (Homo sapiens, UniProt P42336); assay: Inhibition of N-terminal His6-tagged recombinant full length human PI3Kalpha expressed in baculovirus infected Sf21 insect cells at 1 uM by HTRF assay relative to control
T3 sequence (P42336 whole entry, canonical isoform): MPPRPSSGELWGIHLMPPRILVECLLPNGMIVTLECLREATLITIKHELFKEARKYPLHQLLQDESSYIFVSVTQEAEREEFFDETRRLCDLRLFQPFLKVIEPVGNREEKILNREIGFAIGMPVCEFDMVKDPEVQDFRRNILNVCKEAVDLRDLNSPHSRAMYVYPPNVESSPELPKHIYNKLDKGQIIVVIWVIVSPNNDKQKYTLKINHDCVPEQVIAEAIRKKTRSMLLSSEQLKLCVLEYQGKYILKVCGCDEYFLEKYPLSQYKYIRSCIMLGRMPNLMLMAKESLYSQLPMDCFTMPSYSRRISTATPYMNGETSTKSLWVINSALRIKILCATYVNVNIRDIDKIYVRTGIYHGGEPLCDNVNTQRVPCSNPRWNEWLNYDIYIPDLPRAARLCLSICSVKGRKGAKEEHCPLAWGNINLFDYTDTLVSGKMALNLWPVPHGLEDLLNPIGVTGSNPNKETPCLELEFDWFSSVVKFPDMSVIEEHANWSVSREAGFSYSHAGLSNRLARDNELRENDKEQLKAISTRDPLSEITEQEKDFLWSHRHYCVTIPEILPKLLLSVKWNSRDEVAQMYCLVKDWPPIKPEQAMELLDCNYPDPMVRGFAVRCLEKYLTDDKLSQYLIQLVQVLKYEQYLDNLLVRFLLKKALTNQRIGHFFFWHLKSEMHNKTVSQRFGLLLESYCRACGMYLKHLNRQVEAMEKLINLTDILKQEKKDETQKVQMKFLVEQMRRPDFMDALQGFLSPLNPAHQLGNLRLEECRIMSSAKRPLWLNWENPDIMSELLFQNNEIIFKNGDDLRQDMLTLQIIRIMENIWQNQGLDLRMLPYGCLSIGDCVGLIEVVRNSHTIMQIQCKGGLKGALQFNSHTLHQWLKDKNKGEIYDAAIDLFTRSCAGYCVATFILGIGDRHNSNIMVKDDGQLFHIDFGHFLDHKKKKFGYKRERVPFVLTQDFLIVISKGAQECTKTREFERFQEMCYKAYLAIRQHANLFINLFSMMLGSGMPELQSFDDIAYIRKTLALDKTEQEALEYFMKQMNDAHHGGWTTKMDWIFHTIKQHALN

[4] = target: T4, Phosphatidylinositol 4,5-bisphosphate 3-kinase catalytic subunit delta isoform (Homo sapiens) (UniProt O00329); assay: Inhibition of N-terminal His6-tagged recombinant full length human PI3Kdelta expressed in baculovirus infected Sf21 insect cells at 0.1 uM by HTRF assay relative to control
T4 sequence (whole entry): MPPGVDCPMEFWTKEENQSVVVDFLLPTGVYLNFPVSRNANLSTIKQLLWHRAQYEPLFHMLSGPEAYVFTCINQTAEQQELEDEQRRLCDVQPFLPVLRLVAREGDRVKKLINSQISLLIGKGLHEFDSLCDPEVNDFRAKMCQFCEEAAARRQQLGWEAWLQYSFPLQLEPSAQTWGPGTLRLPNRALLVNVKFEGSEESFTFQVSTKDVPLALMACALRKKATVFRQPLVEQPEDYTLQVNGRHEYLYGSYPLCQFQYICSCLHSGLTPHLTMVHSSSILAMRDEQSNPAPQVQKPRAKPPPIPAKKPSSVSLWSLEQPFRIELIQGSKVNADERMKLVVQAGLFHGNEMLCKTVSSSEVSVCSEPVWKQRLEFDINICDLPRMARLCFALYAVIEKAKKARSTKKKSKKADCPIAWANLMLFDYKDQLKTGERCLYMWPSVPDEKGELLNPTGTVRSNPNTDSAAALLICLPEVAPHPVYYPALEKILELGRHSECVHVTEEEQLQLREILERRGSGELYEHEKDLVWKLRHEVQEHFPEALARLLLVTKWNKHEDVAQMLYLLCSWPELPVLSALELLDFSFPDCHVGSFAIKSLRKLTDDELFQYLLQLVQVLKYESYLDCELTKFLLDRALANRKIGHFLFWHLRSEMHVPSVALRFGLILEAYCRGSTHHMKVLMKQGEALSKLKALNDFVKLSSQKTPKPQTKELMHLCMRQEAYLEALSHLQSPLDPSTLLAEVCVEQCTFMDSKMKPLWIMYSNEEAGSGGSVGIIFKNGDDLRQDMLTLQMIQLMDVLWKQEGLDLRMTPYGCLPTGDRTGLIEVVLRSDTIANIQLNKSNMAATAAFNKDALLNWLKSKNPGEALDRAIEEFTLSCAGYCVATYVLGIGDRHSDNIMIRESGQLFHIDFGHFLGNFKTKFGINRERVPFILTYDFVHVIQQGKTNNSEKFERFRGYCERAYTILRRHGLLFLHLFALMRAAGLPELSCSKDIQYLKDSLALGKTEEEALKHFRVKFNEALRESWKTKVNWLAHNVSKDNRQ

SU-DHL-6 = assay: Antiproliferative activity against human SU-DHL-6 cells assessed as cell growth inhibition measured after 72 hrs by MTT assay; format: functional, cell-based; conditions: SU-DHL-6, 72 h
[5] = Metabolic stability in human liver microsomes assessed as compound remaining at 1 uM measured upto 60 mins in presence of NADPH; format: ADME, Microsome; conditions: read-out: Stability
[6] = Metabolic stability in human liver microsomes assessed as clearance at 1 uM measured upto 60 mins in presence of NADPH by measuring protein; format: ADME, Microsome; conditions: 1 h
DOHH-2 = assay: Antiproliferative activity against human DOHH-2 cells assessed as cell growth inhibition measured after 72 hrs by MTT assay; format: functional, cell-based; conditions: DOHH-2, 72 h
[7] = Metabolic stability in human liver microsomes assessed as half life at 1 uM measured upto 60 mins in presence of NADPH; format: ADME, Microsome
[8] = target: T5, Phosphatidylinositol 4,5-bisphosphate 3-kinase catalytic subunit delta isoform (Homo sapiens, UniProt O00329); assay: Inhibition of N-terminal His6-tagged recombinant full length human PI3Kdelta expressed in baculovirus infected Sf21 insect cells incubated for 30 mins by HTRF assay
T5 sequence (O00329 whole entry): T4 sequence (whole entry)

[9] = target: T2, Phosphatidylinositol 4,5-bisphosphate 3-kinase catalytic subunit gamma isoform; assay: Inhibition of N-terminal His6-tagged recombinant full length human PI3Kgamma expressed in baculovirus infected Sf21 insect cells incubated for 30 mins by HTRF assay
Target sequence in this assay (P48736 whole entry, canonical isoform): as the sequence (P48736 whole entry, looked up, canonical isoform) above

[10] = target: T4, Phosphatidylinositol 4,5-bisphosphate 3-kinase catalytic subunit delta isoform (Homo sapiens); assay: Inhibition of N-terminal His6-tagged recombinant full length human PI3Kdelta expressed in baculovirus infected Sf21 insect cells at 1 uM by HTRF assay relative to control
[11] = target: T3, Phosphatidylinositol 4,5-bisphosphate 3-kinase catalytic subunit alpha isoform; assay: Inhibition of N-terminal His6-tagged recombinant full length human PI3Kalpha expressed in baculovirus infected Sf21 insect cells incubated for 30 mins by HTRF assay
[12] = target: T1, Phosphatidylinositol 4,5-bisphosphate 3-kinase catalytic subunit beta isoform; assay: Inhibition of N-terminal His6-tagged recombinant full length human PI3Kbeta expressed in baculovirus infected Sf21 insect cells incubated for 30 mins by HTRF assay
Target sequence in this assay (P42338 whole entry, canonical isoform): as the sequence (P42338 whole entry, looked up, canonical isoform) above

[13] = target: T2, Phosphatidylinositol 4,5-bisphosphate 3-kinase catalytic subunit gamma isoform; assay: Inhibition of N-terminal His6-tagged recombinant full length human PI3Kgamma expressed in baculovirus infected Sf21 insect cells at 1 uM by HTRF assay relative to control
Target sequence in this assay (P48736 whole entry, looked up, canonical isoform): as the sequence (P48736 whole entry, looked up, canonical isoform) above

Row | SMILES | inhibition [1] | inhibition [2] | inhibition [3] | inhibition [4] | pIC50 (SU-DHL-6) | remaining at 1 h, 1 µM [5] | CLH [6] | half-life at 1 µM [7] | pIC50 [8] | pIC50 [9] | inhibition [10] | pIC50 [11] | pIC50 [12] | inhibition [13] | pIC50 (SUD4) | pIC50 (DOHH-2)
1 | N#Cc1c(N)nc(N)nc1N1[C@H](c2nc3cccc(Cl)c3c(=O)n2N2CCOCC2)C[C@@H]2CCCC[C@@H]21 |  |  |  |  | 5.87 |  |  |  | 4.39 | 3.51 |  |  |  |  | 5.98 | 5.41
2 | N#Cc1c(N)nc(N)nc1N1[C@H](c2nc3cccc(F)c3c(=O)n2-c2cccnc2)C[C@@H]2CCCC[C@@H]21 |  |  |  |  | 5.96 |  |  |  | 4.38 | 3.44 |  | 2.51 | 2.81 |  | 5.95 | 5.59
3 | C[C@H]1CC[C@@H](c2nc3c(F)cc(F)cc3c(=O)n2-c2cccnc2)N1c1nc(N)nc(N)c1C#N |  |  |  |  | 6.74 |  |  |  | 5.52 | 4.52 |  | 3.43 | 3.35 |  | 6.80 | 6.33
4 | COc1cncc(-c2cccc3nc([C@@H]4CC[C@H](C)N4c4nc(N)nc(N)c4C#N)n(-c4cccc(F)c4)c(=O)c23)c1 |  |  |  |  | 6.96 |  |  |  | 6.22 | 5.05 |  | 4.66 | 3.37 |  | 6.37 | 6.28
5 | C[C@H]1CC[C@@H](c2nc3cccc(-c4cnn(C5CC5)c4)c3c(=O)n2-c2ccccc2)N1c1nc(N)nc(N)c1C#N | 2% | -2% | 23% | 0% | 6.59 | 45% | 17.8 mL/min/g | 1.3 h |  |  |  |  |  |  | 6.66 | 6.41
6 | CCOc1cncc(-c2cccc3nc([C@@H]4CC[C@H](C)N4c4nc(N)nc(N)c4C#N)n(-c4ccccc4)c(=O)c23)c1 | -3% | -8% |  | -6% | 6.37 | 46.1% | 28.4 mL/min/g | 0.813 h |  |  |  |  |  |  | 6.96 | 6.68
7 | N#Cc1c(N)nc(N)nc1N1[C@H](c2nc3cccc(Cl)c3c(=O)n2-c2cccc(F)c2)C[C@@H]2CCCC[C@@H]21 |  |  |  |  | 5.79 |  |  |  | 4.55 | 3.55 |  |  |  |  | 5.89 | 5.55
8 | C[C@H]1CC[C@@H](c2nc3cccc(C#Cc4cccnc4)c3c(=O)n2-c2ccccc2)N1c1nc(N)nc(N)c1C#N | 13% | 31% | 8% | 4% | 6.49 | 78.1% | 8 mL/min/g | 2.89 h |  |  |  |  |  |  | 6.62 | 6.16

Continued, in another order:

Row | inhibition [1] | inhibition [2] | inhibition [3] | inhibition [4] | pIC50 (SU-DHL-6) | remaining at 1 h, 1 µM [5] | CLH [6] | half-life at 1 µM [7] | pIC50 [8] | pIC50 [9] | inhibition [10] | pIC50 [11] | pIC50 [12] | inhibition [13] | SMILES | pIC50 (SUD4) | pIC50 (DOHH-2)
9 | 28% | 10% | 12% | 1% | 6.49 | 40.4% | 29.6 mL/min/g | 0.78 h |  |  |  |  |  |  | CC(C)n1cc(-c2cccc3nc([C@@H]4CC[C@H](C)N4c4nc(N)nc(N)c4C#N)n(-c4ccccc4)c(=O)c23)cn1 | 6.68 | 6.27
10 | 31% | 30% | 78% | 18% | 6.60 | 75.5% | 11.4 mL/min/g | 2.03 h |  |  | -2% |  |  |  | C[C@H]1CC[C@@H](c2nc3cccc(Cl)c3c(=O)n2-c2ccccc2)N1c1nc(N)nc2[nH]cnc12 | 6.74 | 6.55
11 | 6% | -10% | 1% | -4% | 6.28 | 60% | 17.4 mL/min/g | 1.33 h |  |  |  |  |  |  | CCn1cc(-c2cccc3nc([C@@H]4CC[C@H](C)N4c4nc(N)nc(N)c4C#N)n(-c4ccccc4)c(=O)c23)cn1 | 6.54 | 6.13
12 | 45% | 24% | 13% | -7% | 6.96 | 67.9% | 13 mL/min/g | 1.78 h |  |  | -1% |  |  | -3% | C[C@H]1CC[C@@H](c2nc3cccc(Cl)c3c(=O)n2-c2ccccc2)N1c1nc(N)nc(N)c1C#N | 6.92 | 6.09
13 | 13% | 2% | 5% | -2% | 6.41 | 51.2% | 16.8 mL/min/g | 1.38 h |  |  |  |  |  |  | CCCn1cc(-c2cccc3nc([C@@H]4CC[C@H](C)N4c4nc(N)nc(N)c4C#N)n(-c4ccccc4)c(=O)c23)cn1 | 6.48 | 6.16
14 | 19% | 12% | 13% |  | 6.72 | 59.9% | 20.8 mL/min/g | 1.11 h |  |  |  |  |  |  | COc1cncc(-c2cccc3nc([C@@H]4CC[C@H](C)N4c4nc(N)nc(N)c4C#N)n(-c4ccccc4)c(=O)c23)c1 | 6.92 | 6.54
15 | 20% | 12% | -1% | -8% | 6.38 | 64.7% | 13.8 mL/min/g | 1.67 h |  |  |  |  |  |  | C[C@H]1CC[C@@H](c2nc3cccc(-c4cnn(C)c4)c3c(=O)n2-c2ccccc2)N1c1nc(N)nc(N)c1C#N | 6.52 | 6.17
16 |  |  |  |  | 6.72 |  |  |  | 5.70 | 4.77 |  | 3.59 | 3.39 |  | C[C@H]1CC[C@@H](c2nc3cccc(Cl)c3c(=O)n2-c2cccc(F)c2)N1c1nc(N)nc(N)c1C#N | 7.05 | 6.30
